Data taken from patent US9822125B2, “Benzopyran compounds as melanogenesis modifiers and uses thereof” (NEW YORK UNIVERSITY, priority 2011, dated 2017).

Tested on: melan-a cells
Assay: Melanin assay in cultured murine melanocytes (melan-a)
Assay type: cell-based
Details: 72 hours of incubation
Description: The Spectrum Collection library consisting of 2000 drug compounds or natural products represents a source for the identification of compounds useful in the present invention. The library may be screened to identify novel pigmentation inhibitors in cultured murine melanocytes (melan-a). Compounds are dissolved in dimethylsulfoxide (DMSO) to a final concentration of 10 mM. Screening is performed with cultured melanocytes in 24-well plates followed by melanin assay (see below). A minimum change of 50% in melanin formation is established as significant for a pigmentation inhibitor. DMSO may be used as a negative control and the widely used depigmenting agent, hydroquinone, may be used as a positive control on every plate. Primary screening is performed at a final concentration of 1 μM and potential candidates from the primary screening are reconfirmed in duplicate at final concentrations of 1 and 5 μM.
Melan-a cells are plated at 5×10^4 cells per well in 1 ml of culture media in 24-well plates the day before adding the library compounds. All compounds are added at the indicated final concentrations. Cells are harvested after 72 hours of incubation, and the melanin assay is performed.
For further test and mechanism of action studies, the compounds may be purchased from Sigma, MicroSource or other known suppliers. The compounds are dissolved in dimethylsulfoxide (DMSO) to a final concentration of 10 mM, and are tested for their effect on melanin synthesis at the indicated final concentrations.
For the primary and secondary screening, cells were harvested and dissolved in 200 μl of 2N NaOH in 20% DMSO at 70° C. A 180-μl aliquot of the resulting solution was measured for absorbance at 490 nm.
Cells are harvested in extraction buffer (1% Triton X-100, 50 mM Tris, 2 mM EDTA, 150 mM NaCl, pH 7.5) containing a complete protease inhibitor cocktail (Roche). The lysates were centrifuged at 14,000 rpm for 10 minutes at 4° C. BCA protein assay kit (Pierce) was used to measure the protein concentrations of the supernatants, and bovine serum albumin was used as a standard. The remaining pellets were incubated with 100 μl ethanol-ether (1:1) for 10 minutes at room temperature. After removing the ethanol-ether, the pellets were dissolved in 200 μl of 2N NaOH in 20% DMSO at 70° C. A 180-μl aliquot of the resulting solution was measured for absorbance at 490 nm. The melanin contents were normalized to the total amount of protein.
The compounds, their structures, inhibition data expressed as % of control remaining, are set forth in FIG. 1 and are shown in Table 1, below.

| SMILES | % of control melanin remaining after treatment @ 1 μM | % of control melanin remaining after treatment @ 5 μM |
| --- | --- | --- |
| CC(C)=CCc1c2c(c3occ(-c4ccc(O)cc4)c(=O)c3c1O)C=CC(C)(C)O2 [ID 1, Osajin] | 99 % of control | 87 % of control |
| COc1ccc(-c2coc3c4c(c(CC=C(C)C)c(O)c3c2=O)OC(C)(C)C=C4)cc1 [ID 2, Osajin- 4′methyl ester] | 99 % of control | 70 % of control |
| CC(C)=CCc1c2c(c3occ(-c4ccc(O)c(O)c4)c(=O)c3c1O)C=CC(C)(C)O2 [ID 3, Pomiferin] | 53 % of control | – |
| COc1ccc(-c2coc3c4c(c(CC=C(C)C)c(O)c3c2=O)OC(C)(C)C=C4)cc1OC [ID 4, Pomiferin-3′,4′-dimethyl ether] | 80 % of control | 50 % of control |
| CC(C)=CCc1c2c(c(O)c3c(=O)c(-c4ccc(O)cc4)coc13)C=CC(C)(C)O2 [ID 5, Warangalone] | 100 % of control | 78 % of control |
